Columns and labels:
[1] = target: JAK3(h) (Homo sapiens (Human), UniProt P52333); assay: In vitro activity assay of JAK3 kinase (radiometric [γ-33P]-ATP); assay type: biochemical; conditions: recombinant human JAK3
Method: (§1) Recombinant human JAK1, JAK2, JAK3 and TYK2 […], and main instruments and reagents were provided by Eurofins, UK
(§2) JAK2, JAK3 and TYK2 dilutions: 20 mM 3-(N-morpholino)propanesulfonic acid (MOPS), 1 mM EDTA, 0.01% Brij-35.5% glycerol, 0.1% β-mercaptoethanol, 1 mg/mL BSA; JAK1 dilution: 20 mM TRIS, 0.2 mM EDTA, 0.1% β-mercaptoethanol, 0.01% Brij-35.5% glycerol. All compounds were prepared in 100% DMSO and brought to 50 fold the final assay concentration. The test compounds were serially 3-fold diluted to 9 concentrations from 10 μM to 0.001 μM with DMSO content in the assay reaction being 2%. Working stock solutions of the compounds were added to the assay wells as the first component of the reaction, and then the remaining components were added according to the assay protocol detailed below.
(§3) JAK3(h) was incubated with 8 mM MOPS pH 7.0, 0.2 mM EDTA, 500 μM GGEEEEYFELVKKKK, 10 mM magnesium acetate and [γ-^33P]-ATP (activity and concentration were determined as required). The reaction was started by adding the Mg/ATP mixture and terminated by adding 0.5% phosphoric acid after 40 min of incubation at room temperature. 10 μL of the reaction mixture was then added dropwise on a P30 filter pad and washed three times with 0.425% phosphoric acid and once with methanol within 4 minutes, dried and analyzed using a scintillation counter.

[2] = target: TYK2(h) (Homo sapiens (Human), UniProt P29597); assay: In vitro activity assay of TYK2 kinase (radiometric [γ-33P]-ATP); assay type: biochemical; conditions: recombinant human TYK2
Method: as §1, §2
as §3, with “TYK2(h)” for “JAK3(h)”, “250” for “500”, “GGMEDIYFEFMGGKKK,” for “GGEEEEYFELVKKKK,”

[3] = target: JAK2(h) (Homo sapiens (Human), UniProt O60674); assay: In vitro activity assay of JAK2 kinase (radiometric [γ-33P]-ATP); assay type: biochemical; conditions: recombinant human JAK2
Method: as §1, §2
as §3, with “JAK2(h)” for “JAK3(h)”, “100” for “500”, “[…],” for “GGEEEEYFELVKKKK,”

[4] = test system: rat adjuvant-induced arthritis model; assay: Adjuvant-induced arthritis (AIA) in rats, in-vivo pharmacodynamic study; set-up: species or system Lewis rats; conditions: for Inhibition on area under the clinical score curve, AUC (%): oral, 2 times daily, female Lewis rats; for Mean clinical arthritis score: 10 mg/kg group
Method: The compounds disclosed herein were tested for their efficacy on arthritis using a rat adjuvant-induced arthritis model. Female, 160- and 180-gram Lewis rats were anesthetized with isoflurane and injected subcutaneously with 0.1 mL of Mycobacterium tuberculosis suspension in the left hind paw. The animals were grouped and administered with the compounds 13 days after modeling. The test compound 1-13 was dissolved in a mixed vehicle of [5% DMSO, 95% (12% SBE-β-CD), 0.5% MC]. The female Lewis rats were orally administered 2 times daily (8 animals in each group).

[5] = Pharmacokinetic (PK) study in mice; assay type: in vivo, mice (C57BL/6); conditions: male C57BL/6 mice
Method: Clear solutions obtained by dissolving the test compounds were administered to male mice (C57BL/6) or rats (SD) by tail vein injection and oral gavage (overnight fasting, 7-8 weeks old). After the administration of the test compounds, plasma was separated from blood collected from the mandibular vein and centrifugation at 0.117, 0.333, 1, 2, 4, 7 and 24 h for the intravenous injection group (1 mg/kg), and at 0.25, 0.5, 1, 2, 4, 8 and 24 h for the oral gavage group (3 mg/kg). The plasma concentration was measured by LC-MS/MS method, and the relevant pharmacokinetic parameters were calculated by WinNonlin™ Version 6.3 pharmacokinetic software using non-compartmental model linear logarithmic trapezoid method.

[6] = test system: Caco-2 cells
Method: The transport buffer solution was HBSS (Hanks' balanced salt solution) and 10 mM HEPES [N-(2-hydroxyethyl)piperazine-N′-(2-ethanesulfonic acid)], pH 7.40±0.05; Caco-2 cells were purchased from ATCC.
Caco-2 cells were seeded at 1×10^5 cells/cm^2 in polyethylene terephthalate (PET) 96-well BD insert plates, and the medium was refreshed every 4-5 days until day 21-28 to form a confluent monolayer. Test compounds were tested in a two-way format at 2 μM in duplicate. Digoxin was added at 10 μM in the two-way format, and nadolol and metoprolol were added at 2 μM in the two-way format. Final DMSO concentration was adjusted to less than 1%. The plates were incubated in a CO2 incubator at 37±1° C. for 2 h and at 5% CO2 and saturated humidity without shaking. All samples were mixed with acetonitrile containing an internal standard, centrifuged at 4000 rpm for 10 min. 100 microliters of supernatant was diluted with 100 microliters of distilled water for LC/MS/MS analysis. By LC/MS/MS analysis, the concentrations of the test compounds and the reference compound in the initial test compound solution, the test compound solution and the test article solution using the peak area ratio of the analyte to the internal standard. After the transport test, the integrity of the Caco-2 cell monolayer was determined by fluorescein yellow exclusion reaction, and the apparent permeability coefficient and efflux ratio were calculated.

[7] = target: JAK1(h) (Homo sapiens (Human), UniProt P23458); assay: In vitro activity assay of JAK1 kinase (radiometric [γ-33P]-ATP); assay type: biochemical; conditions: recombinant human JAK1
Method: as §1, §2
as §3, with “JAK1(h)” for “JAK3(h)”, “20” for “8”, “Tris/HCl” for “MOPS”, “7.5,” for “7.0,”, “MGEEPLYWSFPAKKK,” for “GGEEEEYFELVKKKK,”

[8] = i.v. 1 mg/kg and oral gavage 3 mg/kg groups, route not given

Chain of TYK2(h) (P29597 whole entry): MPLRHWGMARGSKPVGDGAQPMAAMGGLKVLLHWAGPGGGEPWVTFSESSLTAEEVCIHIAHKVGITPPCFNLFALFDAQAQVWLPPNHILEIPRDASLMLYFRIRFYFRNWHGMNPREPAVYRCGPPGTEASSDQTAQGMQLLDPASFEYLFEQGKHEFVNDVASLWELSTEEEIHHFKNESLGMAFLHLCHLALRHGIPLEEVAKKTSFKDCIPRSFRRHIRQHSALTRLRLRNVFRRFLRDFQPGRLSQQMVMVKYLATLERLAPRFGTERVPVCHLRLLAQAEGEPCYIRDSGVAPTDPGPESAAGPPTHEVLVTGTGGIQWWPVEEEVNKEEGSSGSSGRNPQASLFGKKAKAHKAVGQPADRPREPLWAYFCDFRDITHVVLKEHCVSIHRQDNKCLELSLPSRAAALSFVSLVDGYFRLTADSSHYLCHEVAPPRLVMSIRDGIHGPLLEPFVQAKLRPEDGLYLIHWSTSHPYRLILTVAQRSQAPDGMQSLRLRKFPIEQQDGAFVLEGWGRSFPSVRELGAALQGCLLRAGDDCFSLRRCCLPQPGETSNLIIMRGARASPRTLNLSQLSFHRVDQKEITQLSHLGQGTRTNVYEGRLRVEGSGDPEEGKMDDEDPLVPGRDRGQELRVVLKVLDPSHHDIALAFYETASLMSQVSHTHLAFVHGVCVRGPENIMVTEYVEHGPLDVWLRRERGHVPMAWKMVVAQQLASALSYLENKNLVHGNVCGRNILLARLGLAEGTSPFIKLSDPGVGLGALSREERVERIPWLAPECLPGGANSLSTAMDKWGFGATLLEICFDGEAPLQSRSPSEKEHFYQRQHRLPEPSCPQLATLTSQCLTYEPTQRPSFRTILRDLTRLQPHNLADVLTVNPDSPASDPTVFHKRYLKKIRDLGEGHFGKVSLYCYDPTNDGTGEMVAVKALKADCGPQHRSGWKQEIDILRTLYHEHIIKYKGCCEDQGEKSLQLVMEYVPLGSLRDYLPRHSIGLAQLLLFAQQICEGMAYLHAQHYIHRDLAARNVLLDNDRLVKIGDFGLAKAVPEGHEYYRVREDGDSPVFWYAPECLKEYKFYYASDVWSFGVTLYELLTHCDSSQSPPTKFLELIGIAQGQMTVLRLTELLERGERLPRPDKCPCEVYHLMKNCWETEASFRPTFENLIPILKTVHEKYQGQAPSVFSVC
Chain of JAK1(h) (P23458 whole entry): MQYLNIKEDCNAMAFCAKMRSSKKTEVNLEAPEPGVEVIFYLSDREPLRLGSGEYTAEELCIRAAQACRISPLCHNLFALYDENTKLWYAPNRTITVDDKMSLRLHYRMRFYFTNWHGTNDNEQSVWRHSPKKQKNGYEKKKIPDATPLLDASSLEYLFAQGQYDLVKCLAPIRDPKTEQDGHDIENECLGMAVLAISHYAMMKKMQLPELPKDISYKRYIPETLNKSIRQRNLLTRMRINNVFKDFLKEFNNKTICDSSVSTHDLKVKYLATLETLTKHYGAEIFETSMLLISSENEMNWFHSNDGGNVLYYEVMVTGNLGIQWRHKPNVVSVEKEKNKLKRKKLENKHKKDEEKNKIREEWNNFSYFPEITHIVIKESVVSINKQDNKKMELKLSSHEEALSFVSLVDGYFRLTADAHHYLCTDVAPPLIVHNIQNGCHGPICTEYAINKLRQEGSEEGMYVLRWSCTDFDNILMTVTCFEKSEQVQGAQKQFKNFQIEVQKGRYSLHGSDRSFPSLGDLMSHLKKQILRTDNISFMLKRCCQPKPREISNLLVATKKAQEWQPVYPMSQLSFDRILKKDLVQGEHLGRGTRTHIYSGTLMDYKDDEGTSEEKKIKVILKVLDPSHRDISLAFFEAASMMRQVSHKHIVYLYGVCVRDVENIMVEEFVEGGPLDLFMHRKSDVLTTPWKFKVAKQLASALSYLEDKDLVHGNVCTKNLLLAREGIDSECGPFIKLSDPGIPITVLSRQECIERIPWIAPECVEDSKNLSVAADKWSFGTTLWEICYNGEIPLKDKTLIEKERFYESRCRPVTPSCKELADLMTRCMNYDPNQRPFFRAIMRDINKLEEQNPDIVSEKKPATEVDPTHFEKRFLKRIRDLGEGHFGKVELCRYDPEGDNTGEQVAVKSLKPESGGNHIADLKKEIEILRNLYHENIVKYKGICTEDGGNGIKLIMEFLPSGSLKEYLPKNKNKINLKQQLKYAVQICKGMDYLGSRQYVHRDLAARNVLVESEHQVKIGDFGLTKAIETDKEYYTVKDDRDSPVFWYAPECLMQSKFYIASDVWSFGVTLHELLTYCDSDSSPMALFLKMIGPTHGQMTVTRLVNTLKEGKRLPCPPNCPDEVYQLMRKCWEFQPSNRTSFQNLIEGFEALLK
Chain of JAK2(h) (O60674 whole entry): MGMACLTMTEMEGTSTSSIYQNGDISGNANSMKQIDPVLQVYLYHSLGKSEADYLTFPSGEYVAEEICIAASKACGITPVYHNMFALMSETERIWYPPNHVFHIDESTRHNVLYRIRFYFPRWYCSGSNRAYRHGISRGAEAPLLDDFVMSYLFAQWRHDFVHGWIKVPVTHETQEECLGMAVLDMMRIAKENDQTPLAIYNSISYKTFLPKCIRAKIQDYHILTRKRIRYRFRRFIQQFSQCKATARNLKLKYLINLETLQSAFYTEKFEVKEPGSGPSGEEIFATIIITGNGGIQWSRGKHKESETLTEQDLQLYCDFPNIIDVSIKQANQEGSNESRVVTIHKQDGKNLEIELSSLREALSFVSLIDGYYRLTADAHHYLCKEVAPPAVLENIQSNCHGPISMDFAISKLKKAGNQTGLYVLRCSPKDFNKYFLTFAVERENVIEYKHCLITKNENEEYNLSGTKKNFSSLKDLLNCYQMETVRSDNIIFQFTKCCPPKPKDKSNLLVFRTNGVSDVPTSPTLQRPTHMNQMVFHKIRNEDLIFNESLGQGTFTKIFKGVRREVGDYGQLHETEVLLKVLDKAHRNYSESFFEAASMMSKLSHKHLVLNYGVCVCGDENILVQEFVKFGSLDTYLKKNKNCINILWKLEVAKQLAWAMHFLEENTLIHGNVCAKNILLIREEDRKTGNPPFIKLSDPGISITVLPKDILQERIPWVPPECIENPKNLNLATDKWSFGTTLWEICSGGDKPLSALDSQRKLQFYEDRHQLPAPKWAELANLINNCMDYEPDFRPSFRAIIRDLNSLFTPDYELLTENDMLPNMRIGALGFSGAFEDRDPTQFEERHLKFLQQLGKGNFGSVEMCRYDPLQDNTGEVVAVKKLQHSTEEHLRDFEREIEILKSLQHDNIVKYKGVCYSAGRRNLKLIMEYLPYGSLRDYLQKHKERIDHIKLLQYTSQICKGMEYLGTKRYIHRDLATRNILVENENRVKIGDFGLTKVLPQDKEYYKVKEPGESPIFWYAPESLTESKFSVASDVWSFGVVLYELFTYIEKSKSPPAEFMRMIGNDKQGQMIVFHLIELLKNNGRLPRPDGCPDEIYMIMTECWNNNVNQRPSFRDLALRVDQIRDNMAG
Chain of JAK3(h) (P52333 whole entry): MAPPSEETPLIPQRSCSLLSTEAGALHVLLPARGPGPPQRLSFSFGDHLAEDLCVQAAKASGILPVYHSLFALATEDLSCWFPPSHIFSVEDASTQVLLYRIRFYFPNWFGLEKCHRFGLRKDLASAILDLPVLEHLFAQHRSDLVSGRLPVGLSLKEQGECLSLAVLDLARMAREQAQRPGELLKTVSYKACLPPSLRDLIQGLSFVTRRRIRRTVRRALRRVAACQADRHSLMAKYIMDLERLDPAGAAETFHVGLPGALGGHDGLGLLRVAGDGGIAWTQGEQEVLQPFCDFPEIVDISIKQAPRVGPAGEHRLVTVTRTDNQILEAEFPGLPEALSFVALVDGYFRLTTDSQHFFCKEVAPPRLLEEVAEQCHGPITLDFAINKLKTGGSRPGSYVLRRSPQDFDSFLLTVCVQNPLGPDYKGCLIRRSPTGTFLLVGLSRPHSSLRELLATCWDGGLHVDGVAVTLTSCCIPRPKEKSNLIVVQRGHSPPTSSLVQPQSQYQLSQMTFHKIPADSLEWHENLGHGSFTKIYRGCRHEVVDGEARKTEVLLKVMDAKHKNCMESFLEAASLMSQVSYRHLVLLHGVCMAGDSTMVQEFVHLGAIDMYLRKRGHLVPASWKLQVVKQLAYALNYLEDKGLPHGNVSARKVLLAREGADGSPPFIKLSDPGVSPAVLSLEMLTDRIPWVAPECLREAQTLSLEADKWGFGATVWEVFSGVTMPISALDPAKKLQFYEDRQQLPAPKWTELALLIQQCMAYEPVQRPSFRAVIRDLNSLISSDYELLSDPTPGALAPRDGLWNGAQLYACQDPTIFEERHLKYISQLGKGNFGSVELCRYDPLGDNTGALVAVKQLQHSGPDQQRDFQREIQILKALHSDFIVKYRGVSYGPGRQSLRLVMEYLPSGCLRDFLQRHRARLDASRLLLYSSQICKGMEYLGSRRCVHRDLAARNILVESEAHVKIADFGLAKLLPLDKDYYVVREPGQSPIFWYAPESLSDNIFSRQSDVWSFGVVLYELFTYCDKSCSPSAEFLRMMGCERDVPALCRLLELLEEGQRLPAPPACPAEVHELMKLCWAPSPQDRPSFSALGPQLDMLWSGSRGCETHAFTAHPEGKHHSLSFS

Row | Compound | IC50 [1] | IC50 [2] | IC50 [3] | Effect on the weight loss trend of animals caused by disease attack ([4]; 3 mg/kg and 10 mg/kg, vs solvent control group, significant difference since day 20) | Therapeutic effect (inhibition rate versus vehicle control) ([4]; 3 mg/kg and 10 mg/kg, P<0.0001 versus vehicle control) | Inhibition on area under the clinical score curve, AUC (%) ([4]; 3 mg/kg) | Mean clinical arthritis score ([4]; day 13 (start of dosing)) | Mean clinical arthritis score ([4]; day 27 (study endpoint)) | Inhibition on area under the clinical score curve, AUC (%) ([4]; 10 mg/kg) | Increase in clinical arthritis score ([4]; dose-dependent, 3 and 10 mg/kg) | Increase in paw volume ([4]; dose-dependent, 3 and 10 mg/kg) | AUC0-inf [5, 8] | Cmax [5, 8] | T1/2 [5, 8] | Bioavailability (%) ([5]; oral gavage 3 mg/kg vs i.v. 1 mg/kg) | Efflux ratio ([6]; Caco-2) | Mean apparent permeability coefficient Mean Papp (10^−6 cm/s) A to B ([6]; Caco-2, pH 7.4) | Mean apparent permeability coefficient Mean Papp (10^−6 cm/s) B to A ([6]; Caco-2, pH 7.4) | IC50 [7]
1 | CN(c1ncnc2[nH]ccc12)[C@@H]1CCc2cc(C#N)nn2C1 [Compound 1-13] | 118 nM | 15 nM | 8 nM | significant relieving effect | significant therapeutic effect | 49.6% | 6 points | 1.4 points | 60.5% | inhibited | inhibited | 12.765 µM·h | 6 µM | 1.89 h | 88.4% | 1.09 | 28.58 10^−6 cm/s | 31.18 10^−6 cm/s | 1 nM
2 | CC(C)(C)NCC(O)COc1cccc2c1CC(O)C(O)C2 (centres unmarked) [Nadolol, reference compound] |  |  |  |  |  |  |  |  |  |  |  |  |  |  |  |  | 0.16 10^−6 cm/s |  | 

Source: patent US12351590B2, “Pyrrolopyrimidine compound and use thereof” (GUANGZHOU JOYO PHARMATECH CO., LTD., priority 2019, dated 2025)
